Where a name gives a salt, the structure may show the parent alone. Read-outs that look alike come from different tables or passages of the source.
Assays:
Hygroscopicity = assay type: physicochemical
[1] = as described in European Patent 0223403B; cited from earlier work
[2] = as described in European Patent 0223403B; cited from earlier work; remark: listed apart in the source

SMILES: Fc1ccc([C@@H]2CCNC[C@H]2COc2ccc3c(c2)OCO3)cc1 [Example 3, paroxetine isethionate]
- Hygroscopicity (in words) (Hygroscopicity): practically no adverse hygroscopicity characteristics

SMILES: Fc1ccc([C@@H]2CCNC[C@H]2COc2ccc3c(c2)OCO3)cc1 [Example 9, paroxetine hydrochloride hemi hydrate]
- Stability (in words) [1]: stable
- Hygroscopicity (in words) [2]: non-hygroscopic

Source: patent US20040225128A1 (priority 2001, published 2004)
